Here are results for 24 compounds from patent US11339171B2, “MDM2 inhibitors” (Gan & Lee Pharmaceuticals, priority 2017, dated 2022).

Structures are written as SMILES. pIC50: −log10 of the molar value.

For the experiment, the target named is T1, MDM2 (Homo sapiens, UniProt Q00987).
T1 construct: made in house
T1 sequence (Q00987 whole entry): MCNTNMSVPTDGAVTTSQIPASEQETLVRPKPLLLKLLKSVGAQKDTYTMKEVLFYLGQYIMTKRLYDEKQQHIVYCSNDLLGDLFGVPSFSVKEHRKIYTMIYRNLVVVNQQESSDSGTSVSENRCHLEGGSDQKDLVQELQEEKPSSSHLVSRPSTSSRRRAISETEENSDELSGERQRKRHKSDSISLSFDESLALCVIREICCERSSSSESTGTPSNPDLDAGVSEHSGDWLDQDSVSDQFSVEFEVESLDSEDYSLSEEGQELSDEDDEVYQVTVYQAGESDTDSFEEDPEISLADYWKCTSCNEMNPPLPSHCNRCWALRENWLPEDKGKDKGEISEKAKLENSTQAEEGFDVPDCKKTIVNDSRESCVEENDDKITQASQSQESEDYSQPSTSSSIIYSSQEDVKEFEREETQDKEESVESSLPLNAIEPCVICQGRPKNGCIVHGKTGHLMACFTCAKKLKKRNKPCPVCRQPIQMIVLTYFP
The experiment can be described thus: Inhibition test of MDM2-P53 (GST-MDM2, Biotin-P53, Anti-GST-Tb, SA-XL665). Format: binding. Summed up: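 Compounds, serially diluted 5-fold (twelve concentrations), were shaken for 90 min at 25° C with a mix of GST-MDM2 (4 nM final), Biotin-P53, anti-GST-Tb and SA-XL665. Buffer: 1×PBS, 0.1% BSA, 5 mM DTT, 1 mM AEBSF; signal read on a microplate reader.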
As a reminder, the pIC50 is −log10 of the IC50, conventionally taken in molar units. A higher pIC50 goes with a small IC50. The compound `COc1cc(N)ccc1-c1nc2c(n1C(C)C)[C@]1(C(=O)Nc3cc(Cl)ccc31)N(c1ccc(F)c(Cl)c1)C2=O` [Example R-73, (R)-2′-(4-amino-2-methoxyphenyl)-6-chloro-5′-(3-chloro-4-fluorophenyl)-3′-isopropyl-3′H-spiro[dihydroindole-3,4′-pyrrolo[3,4-d]imidazole]-2,6′(5′H)-dione] showed a pIC50 of 6.85. The value for `COc1c(F)cccc1-c1nc2c(n1C(C)C)[C@]1(C(=O)Nc3cc(Cl)ccc31)N(c1cc(Cl)ccc1C)C2=O` [Example R-76, (R)-6-chloro-5′-(5-chloro-2-methylphenyl)-2′-(3-fluoro-2-methoxyphenyl)-3′-isopropyl-3′H-spiro[dihydroindole-3,4′-pyrrolo[3,4-d]imidazole]-2,6′(5′H)-dione] was 6.24; that for `COc1cc(C(N)=O)ccc1-c1nc2c(n1C(C)C)[C@]1(C(=O)Nc3cc(Cl)ccc31)N(c1cc(Cl)ccc1C)C2=O` [Example R-77, (R)-4-(6-chloro-5′-(5-chloro-2-methylphenyl)-3′-isopropyl-2,6′-dioxo-5′,6′-dihydro-3′H-spiro[dihydroindole-3,4′-pyrrolo[3,4-d]imidazole]-2′-yl)-3-methoxybenzamide] was 6.86; that for `COc1cccc(OC)c1-c1nc2c(n1C(C)C)[C@]1(C(=O)Nc3cc(Cl)ccc31)N(c1cc(Cl)ccc1C)C2=O` [Example R-79, (R)-6-chloro-5′-(5-chloro-2-methylphenyl)-2′-(2,6-dimethoxyphenyl)-3′-isopropyl-3′H-spiro[dihydroindole-3,4′-pyrrolo[3,4-d]imidazole]-2,6′(5′H)-dione] was 6.54. The value for `COc1ccc(-c2nc3c(n2C(C)C)[C@]2(C(=O)Nc4cc(Cl)ccc42)N(c2cc(Cl)ccc2F)C3=O)c(OC)c1` [Example R-80, (R)-6-chloro-5′-(5-chloro-2-fluorophenyl)-2′-(2,4-dimethoxyphenyl)-3′-isopropyl-3′H-spiro[dihydroindole-3,4′-pyrrolo[3,4-d]imidazole]-2,6′(5′H)-dione] was 6.44.

Compound `COc1nc(N(C)C)ncc1-c1nc2c(n1C(C)C)[C@]1(C(=O)Nc3cc(Cl)ccc31)N(c1cc(Cl)ccc1C)C2=O` [Example R-82, (R)-6-chloro-5′-(5-chloro-2-methylphenyl)-2′-(2-(dimethylamino)-4-methoxypyrimidin-5-yl)-3′-isopropyl-3′H-spiro[dihydroindole-3,4′-pyrrolo[3,4-d]imidazole]-2,6′(5′H)-dione] gave a pIC50 of 6.40.

Take `COc1cc(C2CC2)ccc1-c1nc2c(n1C(C)C)[C@]1(C(=O)Nc3cc(Cl)ccc31)N(c1cc(Cl)ccc1C)C2=O` [Example R-86, (R)-6-chloro-5′-(5-chloro-2-methylphenyl)-2′-(4-cyclopropyl-2-methoxyphenyl)-3′-isopropyl-3′H-spiro[dihydroindole-3,4′-pyrrolo[3,4-d]imidazole]-2,6′(5′H)-dione]: the pIC50 was 6.85. The value for `CCOc1ccc(-c2nc3c(n2C(C)C)[C@]2(C(=O)Nc4cc(Cl)ccc42)N(c2cc(Cl)ccc2C)C3=O)c(OC)c1` [Example R-88, (R)-6-chloro-5′-(5-chloro-2-methylphenyl)-2′-(4-ethoxy-2-methoxyphenyl)-3′-isopropyl-3′H-spiro[dihydroindole-3,4′-pyrrolo[3,4-d]imidazole]-2,6′(5′H)-dione] was 6.40. The value for `COc1cc(C(C)C)ccc1-c1nc2c(n1C(C)C)[C@]1(C(=O)Nc3cc(Cl)ccc31)N(c1cc(Cl)cnc1C)C2=O` [Example R-89, (R)-6-chloro-5′-(5-chloro-2-methylpyridin-3-yl)-3′-isopropyl-2′-(4-isopropyl-2-methoxyphenyl)-3′H-spiro[dihydroindole-3,4′-pyrrolo[3,4-d]imidazole]-2,6′(5′H)-dione] was 6.24; that for `COc1nc(N)ncc1-c1nc2c(n1C(C)C)[C@]1(C(=O)Nc3cc(Cl)ccc31)N(c1cc(Cl)ccc1C)C2=O` [Example R-90, (R)-2′-(2-amino-4-methoxypyrimidin-5-yl)-6-chloro-5′-(5-chloro-2-methylphenyl)-3′-isopropyl-3′H-spiro[dihydroindole-3,4′-pyrrolo[3,4-d]imidazole]-2,6′(5′H)-dione] was 6.51; that for `COc1cc(C(C)C)ccc1-c1nc2c(n1C(C)C)[C@]1(C(=O)Nc3cc(Cl)ccc31)N(c1cccc(Cl)c1)C2=O` [Example R-93, (R)-6-chloro-5′-(3-chlorophenyl)-3′-isopropyl-2′-(4-isopropyl-2-methoxyphenyl)-3′H-spiro[dihydroindole-3,4′-pyrrolo[3,4-d]imidazole]-2,6′(5′H)-dione] was 6.18. The value for `CCOc1ccc(-c2nc3c(n2C(C)C)[C@]2(C(=O)Nc4cc(Cl)ccc42)N(c2cc(Cl)ccc2F)C3=O)c(OC)c1` [Example R-94, (R)-6-chloro-5′-(5-chloro-2-fluorophenyl)-2′-(4-ethoxy-2-methoxyphenyl)-3′-isopropyl-3′H-spiro[dihydroindole-3,4′-pyrrolo[3,4-d]imidazole]-2,6′(5′H)-dione] was 6.08. In the case of `COc1cc(OC(C)C)ncc1-c1nc2c(n1C(C)C)[C@]1(C(=O)Nc3cc(Cl)ccc31)N(c1cccc(Cl)c1)C2=O` [Example R-95, (R)-6-chloro-5′-(3-chlorophenyl)-2′-(6-isopropoxy-4-methoxypyridin-3-yl)-3′-isopropyl-3′H-spiro[dihydroindole-3,4′-pyrrolo[3,4-d]imidazole]-2,6′(5′H)-dione], the pIC50 is 5.78. For the compound `CCOc1cc(OC)c(-c2nc3c(n2C(C)C)[C@]2(C(=O)Nc4cc(Cl)ccc42)N(c2cc(Cl)cnc2C)C3=O)cn1` [Example R-96, (R)-6-chloro-5′-(5-chloro-2-methylpyridin-3-yl)-2′-(6-ethoxy-4-methoxypyridin-3-yl)-3′-isopropyl-3′H-spiro[dihydroindole-3,4′-pyrrolo[3,4-d]imidazole]-2,6′(5′H)-dione], the pIC50 was 6.82. The value for `CCOc1cc(OC)c(-c2nc3c(n2C(C)C)[C@]2(C(=O)Nc4cc(Cl)ccc42)N(c2cc(Cl)ccc2F)C3=O)cn1` [Example R-98, (R)-6-chloro-5′-(5-chloro-2-fluorophenyl)-2′-(6-ethoxy-4-methoxypyridin-3-yl)-3′-isopropyl-3′H-spiro[dihydroindole-3,4′-pyrrolo[3,4-d]imidazole]-2,6′(5′H)-dione] was 5.99. The value for `CCOc1ccc(-c2nc3c(n2C(C)C)[C@]2(C(=O)Nc4cc(Cl)ccc42)N(c2cccc(Cl)c2)C3=O)c(OC)c1` [Example R-100, (R)-6-chloro-5′-(3-chlorophenyl)-2′-(4-ethoxy-2-methoxyphenyl)-3′-isopropyl-3′H-spiro[dihydroindole-3,4′-pyrrolo[3,4-d]imidazole]-2,6′(5′H)-dione] was 6.20; that for `COc1cc(C(C)(C)C)ccc1-c1nc2c(n1C(C)C)[C@]1(C(=O)Nc3cc(Cl)ccc31)N(c1cc(Cl)ccc1C)C2=O` [Example R-101, (R)-2′-(4-(tert-butyl)-2-methoxyphenyl)-6-chloro-5′-(5-chloro-2-methylphenyl)-3′-isopropyl-3′H-spiro[dihydroindole-3,4′-pyrrolo[3,4-d]imidazole]-2,6′(5′H)-dione] was 5.70. The value for `CCOc1cc(OC)c(-c2nc3c(n2C(C)C)[C@]2(C(=O)Nc4cc(Cl)ccc42)N(c2cccc(Cl)c2)C3=O)cn1` [Example R-102, (R)-6-chloro-5′-(3-chlorophenyl)-2′-(6-ethoxy-4-methoxypyridin-3-yl)-3′-isopropyl-3′H-spiro[dihydroindole-3,4′-pyrrolo[3,4-d]imidazole]-2,6′(5′H)-dione] was 6.38. In turn, `CCN(CC)c1ccc(-c2nc3c(n2C(C)C)[C@]2(C(=O)Nc4cc(Cl)ccc42)N(c2cc(Cl)ccc2C)C3=O)c(OC)c1` [Example R-105, (R)-6-chloro-5′-(5-chloro-2-methylphenyl)-2′-(4-(diethylamino)-2-methoxyphenyl)-3′-isopropyl-3′H-spiro[dihydroindole-3,4′-pyrrolo[3,4-d]imidazole]-2,6′(5′H)-dione] had a negative logarithm of the IC50 (pIC50) of 6.46.

The compound `COc1cc(C2CC2)ncc1-c1nc2c(n1C(C)C)[C@]1(C(=O)Nc3cc(Cl)ccc31)N(c1cccc(Cl)c1)C2=O` [Example R-106, (R)-6-chloro-5′-(3-chlorophenyl)-2′-(6-cyclopropyl-4-methoxypyridin-3-yl)-3′-isopropyl-3′H-spiro[dihydroindole-3,4′-pyrrolo[3,4-d]imidazole]-2,6′(5′H)-dione] had a pIC50 of 6.32.

Take `COc1cc(C2CC2)cc(OC)c1-c1nc2c(n1C(C)C)[C@]1(C(=O)Nc3cc(Cl)ccc31)N(c1cc(Cl)ccc1C)C2=O` [Example R-108, (R)-6-chloro-5′-(5-chloro-2-methylphenyl)-2′-(4-cyclopropyl-2,6-dimethoxyphenyl)-3′-isopropyl-3′H-spiro[dihydroindole-3,4′-pyrrolo[3,4-d]imidazole]-2,6′(5′H)-dione]: the pIC50 is 6.16. For `COc1cc(OC2CC2)ncc1-c1nc2c(n1C(C)C)[C@]1(C(=O)Nc3cc(Cl)ccc31)N(c1cc(Cl)ccc1C)C2=O` [Example R-110, (R)-6-chloro-5′-(5-chloro-2-methylphenyl)-2′-(6-cyclopropoxy-4-methoxypyridin-3-yl)-3′-isopropyl-3′H-spiro[dihydroindole-3,4′-pyrrolo[3,4-d]imidazole]-2,6′(5′H)-dione], the pIC50 was 6.15. The value for `COc1nc(N(C)C)ncc1-c1nc2c(n1C(C)C)[C@]1(C(=O)Nc3cc(Cl)ccc31)N(c1cccc(Cl)c1)C2=O` [Example R-112, (R)-6-chloro-5′-(3-chlorophenyl)-2′-(2-(dimethylamino)-4-methoxypyrimidin-5-yl)-3′-isopropyl-3′H-spiro[dihydroindole-3,4′-pyrrolo[3,4-d]imidazole]-2,6′(5′H)-dione] was 6.98; that for `COc1cc(C2CC2)ccc1-c1nc2c(n1C(C)C)[C@]1(C(=O)Nc3cc(Cl)ccc31)N(c1cccc(Cl)c1)C2=O` [Example R-116, (R)-6-chloro-5′-(3-chlorophenyl)-2′-(4-cyclopropyl-2-methoxyphenyl)-3′-isopropyl-3′H-spiro[dihydroindole-3,4′-pyrrolo[3,4-d]imidazole]-2,6′(5′H)-dione] was 6.16.
